Data: PMC9133015 (Nature Communications, 2022)
Where “and” joins values, the source holds several entries; their conditions need not be identical. Identical values can stand only once.

What was measured:
PC-3 xenograft = experiment: In vivo antitumor activity, PC-3 xenograft mouse model; parameters: species or system BALB/c nude mice; conditions: for body weight (Figure S10b): 100 mg/kg (block headed at r39); for tumor volume (Figure S10a): 100 mg/kg, in mm³ (unit assumed); for tumor weight (Figure S10c): individual mice
PC-3 cells = experiment: Cell cycle assay (PI flow cytometry); assay type: cell-based, human; conditions: for Cell cycle percentages ( % ) G0/G1 / Cell cycle percentages ( % ) G2/M / Cell cycle percentages ( % ) S: PC-3, replicates
22Rv1 cells = experiment: Colony formation assay; assay type: cell-based, human; conditions: replicates
DU145 cells = experiment: Colony formation assay; assay type: cell-based, human; conditions: replicates

CCN1CCN(C(=O)c2ccc(Nc3ncc(F)c(-c4ccc5nc(N(C)C)sc5c4)n3)nc2)CC1 [YK-2-69]
body weight (Figure S10b) (PC-3 xenograft; day 3, individual mice, in g (unit assumed)): 19.3 and 18.8 and 19.1 and 19.6 and 18.7 and 18.5 and 20.2 and 21 | body weight (Figure S10b) (PC-3 xenograft; day 5, individual mice, in g (unit assumed)): 19.6 and 19.3 and 19.5 and 20 and 19 and 18.8 and 20.4 and 21.3 | body weight (Figure S10b) (PC-3 xenograft; day 7, individual mice): 19.7 and 19.2 (2×) and 19.8 and 20.2 and 19.1 and 20.7 and 21.6 | body weight (Figure S10b) (PC-3 xenograft; day 9, individual mice): 19.9 and 19.6 (2×) and 20.3 and 20.4 and 19.2 and 21.1 and 22.1 | body weight (Figure S10b) (PC-3 xenograft; day 11, individual mice, in g (unit assumed)): 20.2 and 19.8 and 20.6 and 20.7 and 19.9 and 19.6 and 21.5 and 22.4 | body weight (Figure S10b) (PC-3 xenograft; day 13, individual mice, in g (unit assumed)): 20.7 and 20.1 and 20.9 and 21 and 20.2 and 19.9 and 22 and 22.7 | body weight (Figure S10b) (PC-3 xenograft; day 15, individual mice, in g (unit assumed)): 21.2 and 20.6 and 21.3 and 21.4 and 20.5 and 20.2 and 22.4 and 23.1 | body weight (Figure S10b) (PC-3 xenograft; day 17, individual mice): 21.5 (2×) and 20.9 and 21.7 and 20.7 and 20.5 and 22.6 and 23.4 | body weight (Figure S10b) (PC-3 xenograft; day 19, individual mice): 21.6 and 21.3 and 22.1 and 21.8 and 20.9 (2×) and 22.9 and 23.6 | body weight (Figure S10b) (PC-3 xenograft; day 21, individual mice, in g (unit assumed)): 21.9 and 21.7 and 22.5 and 22 and 21.1 and 20.9 and 23.3 and 24.1 | body weight (Figure S10b) (PC-3 xenograft; day 23, individual mice, in g (unit assumed)): 22.2 and 21.9 and 22.8 and 22.5 and 21.6 and 21.2 and 23.7 and 24.4 | body weight (Figure S10b) (PC-3 xenograft; day 25, individual mice, in g (unit assumed)): 22.4 and 22.2 and 23 and 22.9 | tumor volume (Figure S10a) (PC-3 xenograft; day 1, individual mice): 77.4864 and 92.5301 and 97.1283 and 101.268 and 98.0398 and 97.468 and 73.886 and 80.3144 | tumor volume (Figure S10a) (PC-3 xenograft; day 3, individual mice): 115.765 and 144.425 and 170.933 and 124.316 and 162.987 and 146.332 and 130.957 and 150.238 | tumor volume (Figure S10a) (PC-3 xenograft; day 5, individual mice): 154.192 and 209.47 and 269.793 and 167.67 and 219.907 and 205.492 and 169.178 and 227.654 | tumor volume (Figure S10a) (PC-3 xenograft; day 7, individual mice): 219.658 and 275.568 and 365.875 and 209.513 and 299.159 and 296.64 and 231.386 and 330.578 | tumor volume (Figure S10a) (PC-3 xenograft; day 9, individual mice): 329.162 and 379.473 and 478.428 and 304.962 and 429.596 and 486.382 and 340.579 and 484.285 | tumor volume (Figure S10a) (PC-3 xenograft; day 11, individual mice): 425.31 and 450.313 and 557.222 and 355.841 and 497.266 and 558.451 and 389.654 and 598.443 | tumor volume (Figure S10a) (PC-3 xenograft; day 13, individual mice): 470.277 and 505.24 and 614.643 and 398.947 and 552.456 and 554.825 and 438.407 and 647.336 | tumor volume (Figure S10a) (PC-3 xenograft; day 15, individual mice): 505.825 and 567.155 and 666.998 and 434.631 and 595.348 and 608.437 and 469.076 and 655.028 | tumor volume (Figure S10a) (PC-3 xenograft; day 17, individual mice): 566.789 and 632.783 and 710.893 and 478.638 and 663.313 and 687.885 and 541.191 and 725.155 | tumor volume (Figure S10a) (PC-3 xenograft; day 19, individual mice): 626.915 and 695.75 and 762.842 and 529.26 and 724.582 and 714.002 and 593.545 and 775.769 | tumor volume (Figure S10a) (PC-3 xenograft; day 21, individual mice): 664.022 and 757.202 and 792.305 and 567.096 and 783.549 and 751.035 and 675.845 and 837.844 | tumor volume (Figure S10a) (PC-3 xenograft; day 23, individual mice): 712.611 and 799.725 and 853.619 and 600.587 and 832.37 and 731.016 and 739.798 and 963.73 | tumor volume (Figure S10a) (PC-3 xenograft; day 25, individual mice): 761.381 and 859.669 and 897.54 and 641.932 | tumor weight (Figure S10c) (PC-3 xenograft; High dose, in g (unit assumed)): 0.61 and 0.52 and 0.5 and 0.55 and 0.62 and 0.53 and 0.74 and 0.7 | tumor weight (Figure S10c) (PC-3 xenograft; Low dose, in g (unit assumed)): 0.79 and 0.89 and 1.1 and 0.91 and 0.71 and 0.92 and 0.81 and 0.88 | tumor growth (in words) (PC-3 xenograft; PC-3 xenograft, 100 or 200 mg/kg orally every day): significantly inhibited tumor growth | tumor volume (in words) (PC-3 xenograft; PC-3 xenograft, high dose (200 mg/kg)): decrease tumor volume | Cell cycle percentages ( % ) G0/G1 (PC-3 cells; 0.5 µM): 55.96% and 58.42% and 57.82% | Cell cycle percentages ( % ) G0/G1 (PC-3 cells; 1 µM): 58.52% and 60.06% and 62.96% | Cell cycle percentages ( % ) G0/G1 (PC-3 cells; 2 µM): 64.67% and 62.48% and 65.02% | Cell cycle percentages ( % ) G2/M (PC-3 cells; 0.5 µM): 27.56% and 26.05% and 24.61% | Cell cycle percentages ( % ) G2/M (PC-3 cells; 1 µM): 26.02% and 25.73% and 24.02% | Cell cycle percentages ( % ) G2/M (PC-3 cells; 2 µM): 24.12% and 24.24% and 22.16% | Cell cycle percentages ( % ) S (PC-3 cells; 0.5 µM): 16.48% and 15.53% and 17.57% | Cell cycle percentages ( % ) S (PC-3 cells; 1 µM): 15.46% and 14.21% and 13.02% | Cell cycle percentages ( % ) S (PC-3 cells; 2 µM): 11.21% and 13.28% and 12.82% | cell cycle (in words) (PC-3 cells; PC-3 cells, concentration-dependent): arrested cell cycle at the G0/G1 phase | Colony formation (cell number) (22Rv1 cells; 22Rv1, 0.5 μM): 93 cell number and 88 cell number and 94 cell number | Colony formation (cell number) (22Rv1 cells; 22Rv1, 1 μM): 40 cell number and 56 cell number and 58 cell number | Colony formation (cell number) (22Rv1 cells; 22Rv1, 2 μM): 10 cell number and 9 cell number and 13 cell number | Colony formation (cell number) (DU145 cells; DU145, 2 μM): 70 cell number and 67 cell number and 77 cell number | Colony formation (cell number) (DU145 cells; DU145, 4 μM): 40 cell number and 38 cell number and 35 cell number | Colony formation (cell number) (DU145 cells; DU145, 8 μM): 15 cell number and 12 cell number and 10 cell number
